From patent US20230348426A1, “OXOPYRROLIDINE FPR2 AGONISTS” (Bristol-Myers Squibb Company, priority 2020, published 2023)

What was measured:
[1] = molecular target: human FPR1 (Homo sapiens (Human), UniProt P21462); experiment: FPR1 cyclic adenosine monophosphate (cAMP) assay; format: cell-based; conditions: CHO cells overexpressing human FPR1; forskolin 10 µM; inhibition of cAMP production; read-out: hFPR1 cAMP EC50
Procedure, shortened: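 CHO cells overexpressing human FPR1 (4,000 cells/well) stimulated with 10 µM forskolin plus 200 µM IBMX in the presence of compound (0.020 nM–100 µM, 1% DMSO), 30 min at room temperature. Intracellular cAMP measured by HTRF. Inhibition of cAMP production fitted to a 4-parameter logistic equation.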

[2] = molecular target: human FPR2 (Homo sapiens (Human), UniProt P25090); experiment: FPR2 cyclic adenosine monophosphate (cAMP) assay; format: cell-based; conditions: CHO cells overexpressing human FPR2; forskolin 5 µM; inhibition of cAMP production; read-out: hFPR2 cAMP2 EC50
Procedure, shortened: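 CHO cells overexpressing human FPR2 (2,000/well) incubated 30 min at room temperature with compound (0.020 nM–100 µM, 1% DMSO), 5 µM forskolin and 200 µM IBMX.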

Sequence of human FPR1 (P21462 whole entry): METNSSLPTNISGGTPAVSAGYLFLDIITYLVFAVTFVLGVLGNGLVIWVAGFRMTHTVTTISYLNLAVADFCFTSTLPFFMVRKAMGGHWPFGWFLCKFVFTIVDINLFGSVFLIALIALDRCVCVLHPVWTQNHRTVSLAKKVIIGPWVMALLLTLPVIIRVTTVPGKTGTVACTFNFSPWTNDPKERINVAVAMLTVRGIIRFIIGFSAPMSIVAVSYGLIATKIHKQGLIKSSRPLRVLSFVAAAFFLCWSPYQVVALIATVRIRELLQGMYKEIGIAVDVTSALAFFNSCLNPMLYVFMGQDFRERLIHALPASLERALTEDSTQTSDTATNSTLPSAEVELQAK
Sequence of human FPR2 (P25090 whole entry): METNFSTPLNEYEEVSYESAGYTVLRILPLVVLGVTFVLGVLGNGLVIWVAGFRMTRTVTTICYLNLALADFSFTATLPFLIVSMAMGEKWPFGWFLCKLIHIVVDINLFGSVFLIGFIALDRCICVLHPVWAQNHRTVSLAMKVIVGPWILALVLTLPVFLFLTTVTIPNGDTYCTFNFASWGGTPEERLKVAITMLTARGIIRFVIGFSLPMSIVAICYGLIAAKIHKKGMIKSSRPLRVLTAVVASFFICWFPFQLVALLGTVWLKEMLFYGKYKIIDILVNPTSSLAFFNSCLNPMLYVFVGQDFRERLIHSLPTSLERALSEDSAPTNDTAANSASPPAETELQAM

EC50 [1] [nM] | EC50 [2] [nM] | Compound
0.8 | 5.1 | COc1ccc([C@@H]2CN(c3c(C)ccn(CC4CC4)c3=O)C(=O)[C@H]2NC(=O)c2ccc(OC(F)F)cc2)c(F)c1 [Example 192]
570 | 5.1 | COc1cc(F)c([C@@H]2CN(c3cccn(C)c3=O)C(=O)[C@H]2NC(=O)c2ccc(Cl)cc2)c(F)c1 [Example 193]
150 | 5.1 | COCC(CN)n1cccc(N2C[C@@H](c3c(F)cc(OC)cc3F)[C@H](NC(=O)c3ccc(OC(F)(F)F)cc3)C2=O)c1=O (some centres unmarked) [Example 194]
1.3 | 5.2 | COc1cc(F)c([C@@H]2CN(c3c(C)ccn(CC4CC4)c3=O)C(=O)[C@H]2NC(=O)c2ccc(OC(F)F)cc2)c(F)c1 [Example 195]
160 | 5.2 | COc1cc(F)c([C@@H]2CN(c3c(Cl)ccn(C)c3=O)C(=O)[C@H]2NC(=O)c2ccc(Cl)cc2)c(F)c1 [Example 196]
1.7 | 5.2 | CCn1ccc(C)c(N2C[C@@H](c3c(F)cc(OC)cc3F)[C@H](NC(=O)c3ccc(OC(F)F)cc3)C2=O)c1=O [Example 197]
130 | 5.2 | COc1cc(F)c([C@@H]2CN(c3nc(N4CCC(O)C4=O)ccc3F)C(=O)[C@H]2NC(=O)c2ccc(OC(F)F)cc2)c(F)c1 (some centres unmarked) [Example 199]
290 | 5.2 | COCCn1cccc(N2C(=O)[C@@H](NC(=O)c3ccc(OC(F)(F)F)cc3)[C@H](c3c(F)cc(OC)cc3F)[C@H]2C)c1=O [Example 200]
18 | 5.3 | COc1cc(F)c([C@@H]2CN(c3cccn(C4CCOC4)c3=O)C(=O)[C@H]2NC(=O)c2ccc(OC(F)F)cc2)c(F)c1 (some centres unmarked) [Example 201]
62 | 5.3 | COc1cc(F)c([C@@H]2CN(c3cccnc3OCCN3CC4(COC4)C3)C(=O)[C@H]2NC(=O)c2ccc(OC(F)F)cc2)c(F)c1 [Example 202]
520 | 5.3 | COc1cc(F)c([C@@H]2CN(c3nc(C(F)(F)F)ccc3C)C(=O)[C@H]2NC(=O)c2ccc(OC(F)F)cc2)c(F)c1 [Example 204]
220 | 5.4 | CCn1cc(F)cc(N2C[C@@H](c3c(F)cc(OC)cc3F)[C@H](NC(=O)c3ccc(OC(F)F)cc3)C2=O)c1=O [Example 205]
24 | 5.4 | COc1cc(F)c([C@@H]2CN(c3nc(NC(C)=O)ccc3F)C(=O)[C@H]2NC(=O)c2ccc(OC(F)(F)F)cc2)c(F)c1 [Example 206]
1.4 | 5.4 | COCCn1ccc(C)c(N2C[C@@H](c3ccc(OC)cc3F)[C@H](NC(=O)c3ccc(OC(F)F)cc3)C2=O)c1=O [Example 208]
130 | 5.5 | COc1cc(F)c([C@@H]2CN(c3nc(N4CC5(COC5)C4)ccc3F)C(=O)[C@H]2NC(=O)c2ccc(OC(F)F)cc2)c(F)c1 [Example 209]
190 | 5.5 | COc1cc(F)c([C@@H]2CN(c3cccn(CCN4CC5(COC5)C4)c3=O)C(=O)[C@H]2NC(=O)c2ccc(OC(F)(F)F)cc2)c(F)c1 [Example 210]
25 | 5.5 | COc1cc(F)c([C@@H]2CN(c3cccc(N4C[C@H]5C[C@@H]4CO5)n3)C(=O)[C@H]2NC(=O)c2ccc(OC(F)F)cc2)c(F)c1 [Example 211]
100 | 5.6 | COc1cc(F)c([C@@H]2CN(c3nc(C(F)(F)F)ccc3N3CC[C@H](O)C3)C(=O)[C@H]2NC(=O)c2ccc(Cl)cc2)c(F)c1 [Example 212]
1800 | 5.6 | COc1cc(F)c([C@@H]2CN(c3cccc(N4C[C@@H](C)N(C)[C@@H](C)C4)n3)C(=O)[C@@H]2NC(=O)c2ccc(OC(F)F)cc2)c(F)c1 [Example 213]
2400 | 5.6 | COc1cc(N2C[C@@H](C)N(C)[C@@H](C)C2)nc(N2C[C@@H](c3c(F)cc(OC)cc3F)[C@H](NC(=O)c3ccc(OC(F)F)cc3)C2=O)c1 [Example 214]
41 | 5.6 | CCn1cccc(N2C[C@@H](c3c(F)cc(OC)cc3F)[C@H](NC(=O)c3ccc(C)cc3)C2=O)c1=O [Example 215]
270 | 5.7 | COc1cc(F)c([C@@H]2CN(c3nc(N4CC(C)OCC4=O)ccc3F)C(=O)[C@H]2NC(=O)c2ccc(OC(F)F)cc2)c(F)c1 (some centres unmarked) [Example 216]
42 | 5.7 | COCC(CO)n1cccc(N2C(=O)[C@@H](NC(=O)c3ccc(OC(F)F)cc3)[C@H](c3c(F)cc(OC)cc3F)[C@@H]2C)c1=O (some centres unmarked) [Example 217]
140 | 5.7 | COc1cc(F)c([C@@H]2CN(c3cccn(CC(C)(CO)CO)c3=O)C(=O)[C@H]2NC(=O)c2ccc(OC(F)F)cc2)c(F)c1 [Example 218]
140 | 5.8 | COc1cc(F)c([C@@H]2CN(c3cccn(CCO)c3=O)C(=O)[C@H]2NC(=O)c2ccc(OC(F)F)cc2)c(F)c1 [Example 219]

EC50 [1] [nM] | EC50 [2] [nM] | Compound
990 | 5.8 | COCCn1cccc(N2C(=O)[C@@H](NC(=O)c3ccc(Cl)cc3)[C@H](c3c(F)cc(OC)cc3F)[C@H]2C)c1=O [Example 220]
50 | 6 | COc1cc(F)c([C@@H]2CN(c3cccn(CCF)c3=O)C(=O)[C@H]2NC(=O)c2ccc(OC(F)(F)F)cc2)c(F)c1 [Example 221]
100 | 6.1 | COc1cc(F)c([C@@H]2CN(c3nc(N4CC5(COC5)C4)ccc3OC)C(=O)[C@H]2NC(=O)c2ccc(OC(F)F)cc2)c(F)c1 [Example 223]
1900 | 6.1 | COc1cc(F)c([C@@H]2CN(c3nccc(N4CCN(S(C)(=O)=O)CC4)c3C(F)(F)F)C(=O)[C@H]2NC(=O)c2ccc(Cl)cc2)c(F)c1 [Example 224]
630 | 6.2 | COc1cc(F)c([C@@H]2CN(c3nc(N4C[C@@H](C)N(C)[C@@H](C)C4)ccc3OC)C(=O)[C@H]2NC(=O)c2ccc(OC(F)F)cc2)c(F)c1 [Example 225]
23 | 6.2 | CCn1cccc(N2C[C@@H](c3ccc(OC)cc3F)[C@H](NC(=O)c3ccc(OC(F)F)cc3)C2=O)c1=O [Example 226]
240 | 6.2 | COc1cc(F)c([C@@H]2CN(c3ccc(CO)n(C)c3=O)C(=O)[C@H]2NC(=O)c2ccc(OC(F)(F)F)cc2)c(F)c1 [Example 227]
1.2 | 6.2 | CCn1ccc(C)c(N2C[C@@H](c3c(F)cc(OC)cc3F)[C@H](NC(=O)c3ccc(OC(F)(F)F)cc3)C2=O)c1=O [Example 228]
88 | 6.2 | CCn1cc(F)cc(N2C[C@@H](c3c(F)cc(OC)cc3F)[C@H](NC(=O)c3ccc(OC(F)(F)F)cc3)C2=O)c1=O [Example 230]
3.2 | 6.3 | COCCn1ccc(C)c(N2C[C@@H](c3c(F)cc(OC)cc3F)[C@H](NC(=O)c3ccc(OC(F)F)cc3)C2=O)c1=O [Example 232]
> 5000 | 6.3 | COc1cc(N2CCN(C)CC2)nc(N2C[C@@H](c3c(F)cc(OC)cc3F)[C@H](NC(=O)c3ccc(Cl)cc3)C2=O)c1 [Example 233]
1100 | 6.3 | COc1cc(F)c([C@@H]2CN(c3nccc(NCC(C)O)c3C(F)(F)F)C(=O)[C@H]2NC(=O)c2ccc(OC(F)F)cc2)c(F)c1 (some centres unmarked) [Example 234]
84 | 6.5 | COc1cc(F)c([C@@H]2CN(c3cccnc3OC3CCOC3)C(=O)[C@H]2NC(=O)c2ccc(OC(F)(F)F)cc2)c(F)c1 (some centres unmarked) [Example 235]
30 | 6.5 | O=C(N[C@@H]1C(=O)N(c2cccn(CC(F)F)c2=O)C[C@H]1c1ccc(Cl)cc1)c1ccc(OC(F)F)cc1 [Example 236]
1500 | 6.6 | COc1cc(F)c([C@@H]2CN(c3cc(C(F)(F)F)cn(C)c3=O)C(=O)[C@H]2NC(=O)c2ccc(Cl)cc2)c(F)c1 [Example 238]
650 | 6.6 | COc1cc(F)c([C@@H]2CN(c3nccc(NCC(C)(C)O)c3C(F)(F)F)C(=O)[C@H]2NC(=O)c2ccc(OC(F)F)cc2)c(F)c1 [Example 239]
130 | 6.6 | COc1cc(F)c([C@@H]2CN(c3ccc(CO)[nH]c3=O)C(=O)[C@H]2NC(=O)c2ccc(OC(F)(F)F)cc2)c(F)c1 [Example 240]
38 | 6.6 | COc1cc(F)c([C@@H]2CN(c3cccn(CCC(F)(F)F)c3=O)C(=O)[C@H]2NC(=O)c2ccc(OC(F)F)cc2)c(F)c1 [Example 241]
110 | 6.7 | CCn1cccc(N2C(=O)[C@@H](NC(=O)c3ccc(OC(F)(F)F)cc3)[C@H](c3c(F)cc(OC)cc3F)[C@H]2C)c1=O [Example 242]
170 | 6.7 | COc1cc(F)c([C@@H]2CN(c3ccc(CO)n(C)c3=O)C(=O)[C@H]2NC(=O)c2ccc(OC(F)F)cc2)c(F)c1 [Example 243]
950 | 6.8 | COc1cc(F)c([C@@H]2CN(c3cc(C)cn(C)c3=O)C(=O)[C@H]2NC(=O)c2ccc(OC(F)F)cc2)c(F)c1 [Example 244]
1.1 | 6.8 | COCC(C(=O)N(C)C)n1cccc(N2C[C@@H](c3ccc(Cl)cc3)[C@H](NC(=O)c3ccc(OC(F)(F)F)cc3)C2=O)c1=O (some centres unmarked) [Example 245]
280 | 6.9 | COc1cc(F)c([C@@H]2CN(c3nc(N4C(=O)CC[C@H]4CO)ccc3F)C(=O)[C@H]2NC(=O)c2ccc(OC(F)(F)F)cc2)c(F)c1 [Example 246]
250 | 6.9 | COc1cc(F)c([C@@H]2CN(c3nc(C)ccc3C(F)(F)F)C(=O)[C@H]2NC(=O)c2ccc(OC(F)F)cc2)c(F)c1 [Example 247]
